# Results published in publication PMC8658989, “Synthesis and Biological Studies on (KLAKLAK)2-NH2 Analog Containing Unnatural Amino Acid β-Ala and Conjugates with Second Pharmacophore” (Molecules, 2021).
# Several values for one entry are separate records, joined by “and”; a condition that tells them apart may be missing. Identical values can stand only once. Like-named read-outs stand apart in the source and are kept apart here. Non-standard residues stand in square brackets, D forms with d. Residues, ends and D or L forms follow the SMILES beside them. *: point of attachment. Acetyl(1,8-naphthalimido) = O=C1c2cccc3cccc(c23)C(=O)N1CC(=O)*; Caffeoyl = O=C(/C=C/c1ccc(O)c(O)c1)*; βAla = NCCC(=O)O
# Key:
# [1] = In vitro cytotoxicity, 3T3 NRU test; assay type: cell-based; conditions: mouse, BALB/3T3 clone A31 mouse embryo cells, 24 h incubation, 15 to 2000 μM, read-out: IC50 of Mean ± SD Cytotoxicity BALB 3T3 (CC50)
# Description: The newly synthesized compounds were studied for cytotoxicity assessment by an in vitro 3T3 NRU test. The cells were incubated with the test substances at a concentration of 15 to 2000 μM for 24 h at 37 °C, 5% CO2 and 95% humidity. The cytotoxicity expressed in % relative to the negative control was determined.
# The cytotoxicity testing was performed as described by Borenfreund et al. and the latest modification of the validated BALB/3T3 clone A31 Neutral Red Uptake Assay (3T3 NRU test). BALB/3T3 clone A31 mouse embryo cells were grown as a monolayer in 75 cm^2 tissue culture flasks in high-glucose DMEM (4.5 g/L), supplemented with 10% FBS and antibiotics. Cultures were maintained at 37.5 °C in a humidified atmosphere under 5% CO2. Cells were plated at a density of 1 × 10^4 cells in 100 μL culture medium in each well of 96-well flat-bottomed microplates and allowed to adhere for 24 h before treatment with test compounds, dissolved in DMSO and further diluted in culture medium. A wide concentration range was applied (from 15 to 2000 μM), and the cells were incubated for an additional 24 h. After treatment with Neutral Red medium, washing and application of the ethanol/acetic acid solution (NR Desorb), the absorption was measured on a TECAN microplate reader at wavelength 540 nm. The data obtained are on average from three independent experiments ± SD, n = 6.
# [2] = system: MCF-10A; test: Antiproliferative activity, MTT dye-reduction assay, MCF-10A; assay type: cell-based, human; conditions: 72 h, read-out: IC50 of Mean ± SD Antiproliferative Activity MCF-10A
# Description: (§1) The compounds were studied for antiproliferative activity by MTT dye-reduction assay. Cell cultures from different cell lines (MCF-10A, MCF-7 and MDA-MB-231) were incubated with the test substances at a concentration of 15 to 2000 μM for 72 h at 37 °C, 5% CO2 and 95% humidity. The antiproliferative activity expressed in % relative to the negative control was determined.
# MCF-10A is a reliable model for normal human mammary epithelial cells, which serves as a control in experiments to determine antitumor activity.
# (§2) The antiproliferative activity testing was performed on cell cultures from several human cell lines using the standard MTT dye-reduction assay, described by Mosmann. The assay is based on the metabolism of the tetrazolium salt 3-(4,5-dimethylthiazol-2-yl)-2,5-diphenyltetrazolium bromide (MTT) to insoluble formazan by mitochondrial reductases. The formazan concentration can be determined spectrophotometrically. The measured absorption is an indicator of cell viability and metabolic activity. The following cell lines were used in the experiments: mammary gland type A adenocarcinoma ER+, PR+ and HER2− (MCF-7); triple-negative breast cancer ER−, PR−, and HER2− (MDA-MB-231); and breast, nontumorigenic epithelial cell line (MCF-10A). The cell lines were routinely grown as monolayers in 75 cm^2 tissue culture flasks under standard conditions (described above). Cells were plated at a density of 1 × 10^3 cells in 100 µL in each well of 96-well flat-bottomed microplates and allowed to adhere for 24 h before treatment with test compounds. A concentration range from 15 to 2000 μM was applied for 72 h. Formazan absorption was registered using a microplate reader at λ = 540 nm. Antiproliferative activities were expressed as IC50 values (concentrations required for 50% inhibition of cell growth), calculated using nonlinear regression analysis (GraphPad Prism 4 Software, https://www.graphpad.com).
# [3] = system: MCF-7; test: Antiproliferative activity, MTT dye-reduction assay, MCF-7; assay type: cell-based, human; conditions: for IC50: MTT, 72 h, read-out: IC50 of Mean ± SD Antiproliferative Activity MCF-7; for SI ± SD MCF-7 (selective index): SI = IC50 of MCF-10A/IC50 of MCF-7
# Description: as §1, §2
# [4] = system: MDA-MB-231; test: Antiproliferative activity, MTT dye-reduction assay, MDA-MB-231; assay type: cell-based, human; conditions: for IC50: MTT, 72 h, read-out: IC50 of Mean ± SD Antiproliferative Activity MDA-MB-231; for SI ± SD MDA-MB-231 (selective index): SI = IC50 of MCF-10A/IC50 of MDA-MB-231
# Description: as §1, §2
# [5] = system: Escherichia coli K12 407; test: Antimicrobial assay, agar/disc diffusion, E. coli; assay type: cell-based; conditions: 6 μL of 20 μM solution on 6 mm paper disc, 24 h
# Description: (§3) The microbial cultures were placed in a thin layer on sterile plates. On sterile paper discs, 6 μL of 20 μM solutions in distilled water of the test compounds was placed. Further, the discs were incorporated into a thin layer of sterile plates (Figure 3). The studies were triplicates for each concentration, and the diameters of the obtained zones represent the average value of the three results.
# (§4) All newly synthesized derivatives of (KLAKLAK)2-NH2 at concentrations of 20 μM in distilled water were tested against model strains E. coli NBIMCC K12 407, B. subtilis NBIMCC 3562 and C. albicans NBIMCC 74. The strains were obtained from the National Bank for Industrial Microorganisms and Cell Cultures (NBIMCC, Sofia, Bulgaria). Exponential cultures (1 × 10^7 cfu/mL) of strains E. coli K12 407 were obtained in Luria-Bertani (LB, HiMedia, Mumbai, India); for B. subtilis 3562, an initial bacterial concentration of 1 × 10^6 cfu/mL was obtained in nutrient broth (NB, HiMedia, Mumbai, India); and for C. albicans 74, and initial bacterial concentration of 1 × 10^5 cfu/mL was obtained in yeast mold (YM) medium. Cultivation was performed in an ES-20/60 incubator shaker (Biosan, Riga, Latvia) at 30 °C for B. subtilis 3562 and at 37 °C for E. coli K12 407 and C. albicans 74 with shaking at 220 rpm for 24 h. The agar diffusion method was applied to determine the antimicrobial activity of the tested compounds. LB/NB/YM plates were inoculated by spreading 100 μL of each microbial culture on their surface, followed by incubation at 30/37 °C for penetration of suspension into the agar. After 30 min, sterile paper discs (6 mm in diameter) were soaked with the tested compounds in amounts of 6 µL and placed on the surface of agar Petri dishes. The plates were incubated at 30/37 °C for 24 h. Antimicrobial activity was assessed by measuring the diameter of the obtained inhibition zones. Sterile paper discs soaked with water were used as blank controls. Mean values were calculated by performing the experiments in triplicates.
# [6] = system: Bacillus subtilis 3562; test: Antimicrobial assay, agar/disc diffusion, B. subtilis; assay type: cell-based; conditions: 6 μL of 20 μM solution on 6 mm paper disc, 24 h
# Description: as §3, §4
# [7] = system: Candida albicans 74; test: Antimicrobial assay, agar/disc diffusion, C. albicans; assay type: cell-based; conditions: 6 μL of 20 μM solution on 6 mm paper disc, 24 h
# Description: as §3, §4
# [8] = Hydrolytic stability in model buffer solutions by HPLC; assay type: physicochemical; conditions: 72 h, model buffer solutions pH 2, pH 7.4 and pH 9, HPLC
# Description: HPLC profiles of all target compounds at three different pH values that mimic human pH in the stomach (pH 2), blood plasma (pH 7.4) and small intestine (pH 9) are presented in the Supplementary Materials.
# The designed changes in the structures, i.e., C-terminal amide modification, as well as the introduction of a β-Ala moiety, lead to complete stability of the target compounds during the test period in all model conditions.
# The obtained solution was made up to 1000.0 mL with dH2O; • (ii) Buffer with pH 7.4–2.38 g Na2HPO4, 0.19 g KH2PO4 and 8.0 g NaCl was dissolved in dH2O. The obtained solution was made up to 1000.0 mL with dH2O. • (iii) Buffer with pH 9.0–1000.0 mL of solution I was mixed with 420.0 mL of solution II. Solution I: 6.18 g of H3BO3 was dissolved in 0.1 mol/L KCl, and it was made up to 1000.0 mL with the same solvent; Solution II: 0.1 mol/L NaOH.
SMILES,CC50 at 24 h [1] [µM],IC50 [2] [µM],IC50 [3] [µM],SI ± SD MCF-7 (selective index) [3],SI ± SD MCF-7 (selective index) ([3]; listed as Si 4),IC50 [4] [µM],SI ± SD MDA-MB-231 (selective index) [4],"Inhibition zones size, Escherichia coli K12 407 ([5]; listed as S4) [mm]","Inhibition zones size, Bacillus subtilis 3562 ([6]; listed as S4) [mm]","Inhibition zones size, Candida albicans 74 [7]","Inhibition zones size, Candida albicans 74 ([7]; listed as Si 4) [mm]",Hydrolytic stability [8],"Inhibition zones size, Escherichia coli K12 407 [5]","Inhibition zones size, Bacillus subtilis 3562 [6]","Inhibition zones size, Candida albicans 74 ([7]; listed as Si 5) [mm]",IC50 ([3]; listed as Si 9) [µM],SI ± SD MCF-7 (selective index) ([3]; listed as Si 9),SI ± SD MCF-7 (selective index) ([3]; listed as Si 10),melting point [°C]
"CC(C)C[C@H](NC(=O)[C@H](CCCCN)NC(=O)CCNC(=O)[C@H](CC(C)C)NC(=O)[C@H](CCCCN)NC(=O)CN1C(=O)c2cccc3cccc(c23)C1=O)C(=O)NCCC(=O)N[C@@H](CCCCN)C(=O)N[C@@H](CCCCN)C(=O)N[C@@H](CC(C)C)C(=O)NCCC(=O)N[C@@H](CCCCN)C(=O)N[C@@H](CC(C)C)C(=O)NCCC(=O)N[C@@H](CCCCN)C(N)=O [Si4, 1,8-NphtG-(KLβ-AKLβ-AK)2-NH2] ({Acetyl(1,8-naphthalimido)}-KL[βAla]KL[βAla]KKL[βAla]KL[βAla]K-NH2)",1220 ± 40.5,1330 ± 69.5,881 ± 80.5,1.51 ± 0.148,1.505 ± 0.148,1410 ± 26.2,0.940 ± 0.049,16,15.83,good antimicrobial activity,14.33 ± 0.36,complete hydrolytic stability,,,,,,,
"CC(C)C[C@H](NC(=O)[C@H](CCCCN)NC(=O)CCNC(=O)[C@H](CC(C)C)NC(=O)[C@H](CCCCN)NC(=O)[C@H](CCCCN)NC(=O)CCNC(=O)[C@H](CC(C)C)NC(=O)[C@H](CCCCN)NC(=O)CCNC(=O)[C@H](CC(C)C)NC(=O)[C@@H](N)CCCCN)C(=O)NCCC(=O)N[C@@H](CCCCN)C(N)=O [Si5, (KLβ-AKLβ-AK)2-NH2] (H-KL[βAla]KL[βAla]KKL[βAla]KL[βAla]K-NH2)",1270 ± 70.7,1290 ± 38.1,1250 ± 34.1,1.028 ± 0.033,,1450 ± 15.7,0.890 ± 0.033,,,did not show any antifungal activity,,complete hydrolytic stability,11.83 ± 0.27 mm,11.16 ± 0.25 mm,0,,,,
"CC(C)C[C@H](NC(=O)[C@H](CCCCN)NC(=O)CN1C(=O)c2cccc3cccc(c23)C1=O)C(=O)N[C@@H](C)C(=O)N[C@@H](CCCCN)C(=O)N[C@@H](CC(C)C)C(=O)N[C@@H](C)C(=O)N[C@@H](CCCCN)C(=O)N[C@@H](CCCCN)C(=O)N[C@@H](CC(C)C)C(=O)N[C@@H](C)C(=O)N[C@@H](CCCCN)C(=O)N[C@@H](CC(C)C)C(=O)N[C@@H](C)C(=O)N[C@@H](CCCCN)C(N)=O [Si9, 1,8-NphtG-(KLAKLAK)2-NH2]",185 ± 4.4,99.1 ± 5.59,45 ± 4.2,2.19 ± 0.147,,179 ± 2.92,0.553 ± 0.037,,,20.66 ± 0.45 mm,,complete hydrolytic stability,11.33 ± 0.26 mm,13.50 ± 0.34 mm,,45.2 ± 4.15,2.192 ± 0.147,,
"CC(C)C[C@H](NC(=O)[C@H](CCCCN)NC(=O)/C=C/c1ccc(O)c(O)c1)C(=O)N[C@@H](C)C(=O)N[C@@H](CCCCN)C(=O)N[C@@H](CC(C)C)C(=O)N[C@@H](C)C(=O)N[C@@H](CCCCN)C(=O)N[C@@H](CCCCN)C(=O)N[C@@H](CC(C)C)C(=O)N[C@@H](C)C(=O)N[C@@H](CCCCN)C(=O)N[C@@H](CC(C)C)C(=O)N[C@@H](C)C(=O)N[C@@H](CCCCN)C(N)=O [Si10, Caf-(KLAKLAK)2-NH2]",173 ± 8.51,72.5 ± 4.69,50.5 ± 1.66,1.4 ± 0.072 and 1.44,,177 ± 2.79,0.411 ± 0.023,,,17.66 ± 0.41 mm,,complete hydrolytic stability,13.33 ± 0.33 mm,12.66 ± 0.31 mm,,,,1.436 ± 0.072,122 to 124
"CC(C)C[C@H](NC(=O)[C@H](CCCCN)NC(=O)/C=C/c1ccc(O)c(O)c1)C(=O)NCCC(=O)N[C@@H](CCCCN)C(=O)N[C@@H](CC(C)C)C(=O)NCCC(=O)N[C@@H](CCCCN)C(=O)N[C@@H](CCCCN)C(=O)N[C@@H](CC(C)C)C(=O)NCCC(=O)N[C@@H](CCCCN)C(=O)N[C@@H](CC(C)C)C(=O)NCCC(=O)N[C@@H](CCCCN)C(N)=O [Si12, Caf-(KLβ-AKLβ-AK)2-NH2] (Caffeoyl-KL[βAla]KL[βAla]KKL[βAla]KL[βAla]K-NH2)",880 ± 30.3,,,,,,,,,did not show any antifungal activity,,,good antimicrobial activity,good antimicrobial activity,,,,,160 to 162
